We go through ten compounds from patent publication US20110224247A1, “AZAISOQUINOLINONE DERIVATIVES AS NK3 ANTAGONISTS” (H. LUNDBECK A/S, priority 2010, published 2011).

One data set has as its target T1, human NK3 receptor (Homo sapiens, UniProt P29371).
T1 construct: expressed in transfected cells; membranes prepared
T1 sequence (P29371 1-465): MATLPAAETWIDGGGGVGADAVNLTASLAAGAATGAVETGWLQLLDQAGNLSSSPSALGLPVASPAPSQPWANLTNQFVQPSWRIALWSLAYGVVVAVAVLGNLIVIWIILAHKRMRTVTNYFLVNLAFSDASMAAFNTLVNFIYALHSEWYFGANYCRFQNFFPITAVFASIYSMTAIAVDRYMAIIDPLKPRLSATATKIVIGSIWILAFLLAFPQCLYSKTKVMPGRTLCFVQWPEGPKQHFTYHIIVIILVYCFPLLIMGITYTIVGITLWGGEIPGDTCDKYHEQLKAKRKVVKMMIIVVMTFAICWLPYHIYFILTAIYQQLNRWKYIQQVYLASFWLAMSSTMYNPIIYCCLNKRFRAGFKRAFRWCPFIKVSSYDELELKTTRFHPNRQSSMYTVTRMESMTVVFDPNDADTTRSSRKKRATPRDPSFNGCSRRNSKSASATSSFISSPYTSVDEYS
Nature of the data set: NK3 receptor binding assay. The conditions noted are these: filter-based competition binding vs ~0.05 nM 3H-AE93103, membranes of BHK cells expressing human NK3; Ki by Cheng Prusoff; read-out: Affinity (Ki/nM). Here is the method:
Membranepreparation: BHK cells stably expressing the human NK3 receptor were seeded in harvesting plates in Dulbeccos MEM containing GlutaMax (862 mg/l), 1 mM sodium pyruvate, 10% fetal calf serum, 1% Pen/Strep, 1 mg/ml G418 and were grown at 34° C. in a humidified atmosphere containing 10% CO2. To increase receptor expression, 10 μM trichotatin A was added to the media 24 hours before harvest of the cells at a confluency of app 90%. Prior to the harvesting, the cells were washed twice with PBS without Mg^2+ and Ca^2+ and subsequently scrapped of in 10 ml PBS pr harvesting plate. The cells suspension were centrifuged at 1500×G in three minutes before resuspension in 15 mM Tris-HCl pH 7,5 buffer containing 2 mM MgCl2; 0,3 mM EDTA and 1 mM EGTA (buffer A). The cell suspention was homogenised and subsequently centrifuged at 40000×G in 30 minutes. The membrane-pellet was resuspended in buffer A containing 250 mM sucrose, alliquoted and stored at −80° C.
Affinity assay description: The assay is performed as a filter-based competition-binding in a 50 mM Tris pH 7.4 assay buffer containing 120 mM NaCl and 3 mM MnCl2. App 0.05 nM ^3H-AE93103 was mixed with test compounds before addition of 0.15 μg of a homogenised NK3 membrane preparation in a total volume of 300 μl. The assay plate is incubated for 90 min at RT before content of the wells is transferred using a cell-harvester to GF/C filter plates, which has been pretreated with 0.1% PEI. The filter is washed 3 times with 1 ml an ice-cold 50 mM Tris buffer, pH 7,4. The filter is dried and added scintillation liquid before the plate is counted in a topcounter 5 minutes pr well.
The total binding, which comprised less than 10% of added radioligand, was defined using assay buffer whereas the non-specific binding was defined in the presence of 1 μM SR142801. The non-specific binding constituted ˜10% of the total binding. Data points are expressed in percent of the specific binding of ^3H-AE93103 and the […] (concentration causing 50% inhibition of ^3H-AE93103 specific binding) are determined by non-linear regression analysis using a sigmoidal variable slope curve fitting.

For data set [1] the following is noted: cited from earlier work.
For data set [2] the following is noted: in vivo; cited from earlier work.
The conditions of data set [3]: cited from earlier work. This is another data set of the same source.

For `CCNn1c(C)c(C(=O)N[C@H](c2cccc(F)c2)C2CCC2)c2cnccc2c1=O` [Example 1a, 2-Ethylamino-3-methyl-1-oxo-1,2-dihydro-[2,6]naphthyridine-4-carboxylic acid [(S)-cyclobutyl-(3-fluoro-phenyl)-methyl]-amide], the Ki at human NK3 receptor is 58 nM. Still for that read-out and setting: as for `CCCNn1c(C)c(C(=O)N[C@H](c2ccc(F)cc2)C2CC2)c2cnccc2c1=O` [Example 1b, 3-Methyl-1-oxo-2-propylamino-1,2-dihydro-[2,6]naphthyridine-4-carboxylic acid [(S)-cyclopropyl-(4-fluoro-phenyl)-methyl]-amide], the figure is 720 nM. On the same count and under the same terms, as for `CCCNn1c(C)c(C(=O)N[C@H](c2cccc(Cl)c2)C2CC2)c2cnccc2c1=O` [Example 1c, 3-Methyl-1-oxo-2-propylamino-1,2-dihydro-[2,6]naphthyridine-4-carboxylic acid [(S)-(3-chloro-phenyl)-cyclopropyl-methyl]-amide], the figure is 540 nM; as for `CCCNn1c(C)c(C(=O)NC(c2ccccc2F)C2CCC2)c2cnccc2c1=O` (stereo not drawn) [Example 1d, 3-Methyl-1-oxo-2-propylamino-1,2-dihydro-[2,6]naphthyridine-4-carboxylic acid [cyclobutyl-(2-fluoro-phenyl)-methyl]-amide], 160 nM; as for `CCCNn1c(C)c(C(=O)N[C@H](c2cccc(F)c2)C2CCC2)c2cnccc2c1=O` [Example 1e, 3-Methyl-1-oxo-2-propylamino-1,2-dihydro-[2,6]naphthyridine-4-carboxylic acid [(S)-cyclobutyl-(3-fluoro-phenyl)-methyl]-amide], 33 nM.

For `CCCNn1c(C)c(C(=O)N[C@@H](CC)c2ccccc2)c2cnccc2c1=O` [Example 1g, 3-Methyl-1-oxo-2-propylamino-1,2-dihydro-[2,6]naphthyridine-4-carboxylic acid ((S)-1-phenyl-propyl)-amide], on human NK3 receptor, the Ki came out at 430 nM. Still for that read-out and setting: as for `CCNn1c(C)c(C(=O)N[C@H](c2cccc(F)c2)C2CCC2)c2ncccc2c1=O` [Example 2a, 6-Ethylamino-7-methyl-5-oxo-5,6-dihydro-[1,6]naphthyridine-8-carboxylic acid [(S)-cyclobutyl-(3-fluoro-phenyl)-methyl]-amide], the figure is 91 nM. Take `CCNn1c(C)c(C(=O)N[C@H](c2cccc(F)c2)C2CCC2)c2ccncc2c1=O` [Example 3a, 2-Ethylamino-3-methyl-1-oxo-1,2-dihydro-2,7-naphthyridine-4-carboxylic acid [(S)-cyclobutyl-(3-fluoro-phenyl)-methyl]-amide]: on human NK3 receptor, the Ki was 110 nM.

For the compound `CC(=O)N(C)C1(c2ccccc2)CCN(CCC[C@]2(c3ccc(Cl)c(Cl)c3)CCCN(C(=O)c3ccccc3)C2)CC1` [Osanetant], the solubility result in data set [1] is “poor”. Further, in data set [2], the bioavailability result was “poor”, the blood-brain barrier penetration entry was “poor” and the clearance entry is “relatively high”. The “Effect in clinical trials, in particular on positive symptoms of psychosis” value in data set [3] (delusions, hallucinations and paranoia) is “superior to placebo”. As to `CC[C@H](NC(=O)c1c(O)c(-c2ccccc2)nc2ccccc12)c1ccccc1` [talnetant], the solubility entry in data set [1] is given as “poor”. Further, in data set [2], the bioavailability entry is listed as “poor”, the blood-brain barrier penetration entry is reported as “poor” and the clearance result was “relatively high”. The “Effect on cognitive behaviour of schizophrenics in clinical trials” value in data set [3] (schizophrenics) was “ameliorate the cognitive behaviour”.
